From patent publication US20090208517A1, “Preparation Of Antigen-Presenting Human Gamma-Delta T Cells And Use In Immunotherapy” (priority 2004, published 2009)

Test system: naïve CD4^+ αβ T cells
Type: cell-based, human

Substance: phytohemagglutinin [PHA]
- Vβ2^+ (%) responder cells: 9%
- selective expansion of Vβ2^+ T cells (in words): does not result in selective expansion of Vβ2^+ T cells
